Data from patent US12084472B2 (Ardelyx, Inc., priority 2015, dated 2024).

The compounds below were run against T1, human TGR5 (Homo sapiens, UniProt Q8TDU6) (assay: Cell-based TGR5 assay (cAMP generation, HTRF)). Details: HEK293 cells stably transfected with human TGR5; cAMP by HTRF; 30 minutes at 37° C.; read-out: pEC50 Human TGR5 (converted).
T1 construct: expressed in transfected cells; host or cells: HEK293
T1 sequence (Q8TDU6 1-330): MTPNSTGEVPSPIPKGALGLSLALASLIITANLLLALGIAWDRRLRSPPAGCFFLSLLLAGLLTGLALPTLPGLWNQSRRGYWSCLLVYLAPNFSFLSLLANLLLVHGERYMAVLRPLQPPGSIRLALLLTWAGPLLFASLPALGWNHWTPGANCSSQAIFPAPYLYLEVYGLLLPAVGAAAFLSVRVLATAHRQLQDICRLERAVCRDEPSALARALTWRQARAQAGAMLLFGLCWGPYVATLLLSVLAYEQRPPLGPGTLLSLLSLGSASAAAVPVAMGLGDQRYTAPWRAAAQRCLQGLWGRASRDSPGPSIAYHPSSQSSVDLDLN
In short: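 Read-out was HTRF detection of cAMP, converted to concentration via a standard curve and fitted (3-parameter logistic) for pEC50 and maximal response. Agonist stimulation used HEK293 cells stably transfected with human TGR5, incubated 30 min at 37° C in IBMX-containing buffer at 0.05 nM to 10 μM compound.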

First: CN(C[C@H](O)[C@@H](O)[C@H](O)[C@H](O)CO)C(=O)c1ccc(CSc2ccc(Cl)c(COC3(c4cnccc4-c4ccccc4OC4CC4)CC3)c2)cc1 [Compound I-685, 4-({[4-chloro-3-({1-[4-(2-cyclopropoxyphenyl)pyridin-3-yl]cyclopropoxy}methyl)phenyl]sulfanyl}methyl)-N-methyl-N-[(2S,3R,4R,5R)-2,3,4,5,6-pentahydroxyhexyl]benzamide]
Second: O=C(CCCSc1ccc(Cl)c(COC2(c3cnccc3-c3ccccc3OC3CC3)CC2)c1)N(Cc1ccccc1)C[C@H](O)[C@@H](O)[C@H](O)[C@H](O)CO [Compound I-667, N-benzyl-4-{[4-chloro-3-({1-[4-(2-cyclopropoxyphenyl)pyridin-3-yl]cyclopropoxy}methyl)phenyl]sulfanyl}-N-[(2S,3R,4R,5R)-2,3,4,5,6-pentahydroxyhexyl]butanamide]
The EC50 of the first is lower: less than 100 nM for the first, 126 to 1000 nM for the second.

First: CN1CCCN(S(=O)(=O)c2ccc(Cl)c(COC3(c4cnccc4-c4ccccc4OC4CC4)CC3)c2)CC1 [Compound I-769, 1-((4-chloro-3-((1-(4-(2-cyclopropoxyphenyl)pyridin-3-yl)cyclopropoxy)methyl)phenyl)sulfonyl)-4-methyl-1,4-diazepane]
Second: COc1ccc2c(n1)CCN(S(=O)(=O)c1ccc(Cl)c(COC3(c4cnccc4-c4ccccc4OC4CC4)CC3)c1)C2 [Compound I-733, 6-[[4-chloro-3-([1-[4-(2-cyclopropoxyphenyl)pyridin-3-yl]cyclopropoxy]methyl)benzene]sulfonyl]-2-methoxy-5,6,7,8-tetrahydro-1,6-naphthyridine]
The EC50 of the first is higher: 126 to 1000 nM for the first, less than 100 nM for the second.

`CCC(=O)N(CCCCc1cc(Cl)c(COC2(c3cnccc3-c3ccccc3OC3CC3)CC2)cc1Cl)C[C@H](O)[C@@H](O)[C@H](O)[C@H](O)CO` [Compound I-73, N-{4-[2,5-dichloro-4-({1-[4-(2-cyclopropoxyphenyl)pyridin-3-yl]cyclopropoxy}methyl)phenyl]butyl}-N-[(2S,3R,4R,5R)-2,3,4,5,6-pentahydroxyhexyl]propanamide] and `O=C(O)CCC(=O)N(CCCCc1cc(Cl)c(COC2(c3cnccc3-c3ccccc3OC3CC3)CC2)cc1Cl)C[C@H](O)[C@@H](O)[C@H](O)[C@H](O)CO` (stereo in doubt) [Compound I-187, 3-({4-[2,5-dichloro-4-({1-[4-(2-cyclopropoxyphenyl)pyridin-3-yl]cyclopropoxy}methyl)phenyl]butyl}[(2S,3R,4R,5R)-2,3,4,5,6-pentahydroxyhexyl]carbamoyl)propanoic acid] cannot be ordered by EC50: less than 100 nM for the first, less than 100 nM for the second.

`CC(C)N(CCCCNC(=O)N[C@@H](CO)[C@@H](O)[C@H](O)[C@H](O)CO)S(=O)(=O)c1ccc(Cl)c(CNC(C)(C)c2cnccc2-c2ccccc2OC2CC2)c1` [Compound I-754, 4-chloro-3-(((2-(4-(2-cyclopropoxyphenyl)pyridin-3-yl)propan-2-yl)amino)methyl)-N-isopropyl-N-(4-(3-((2S,3R,4S,5R)-1,3,4,5,6-pentahydroxyhexan-2-yl)ureido)butyl) benzenesulfonamide] and `CC(C)N(CCCCNC(=O)NC[C@H](O)[C@@H](O)[C@H](O)[C@H](O)CO)S(=O)(=O)c1ccc(Cl)c(COC2(c3cnccc3-c3ccccc3OC3CC3)CCC2)c1` [Compound I-747, 4-chloro-3-((1-(4-(2-cyclopropoxyphenyl)pyridin-3-yl)cyclobutoxy)methyl)-N-isopropyl-N-(4-(3-((2S,3R,4R,5R)-2,3,4,5,6-pentahydroxyhexyl)ureido)butyl)benzenesulfonamide] cannot be ordered by EC50: less than 100 nM for the first, less than 100 nM for the second.

`O=C(NCCCCCNS(=O)(=O)c1ccc(Cl)c(COC2(c3cnccc3-c3ccccc3OC3CC3)CC2)c1)N[C@@H](CO)[C@@H](O)[C@H](O)[C@H](O)CO` (stereo in doubt) [Compound I-409, 1-{5-[4-chloro-3-({1-[4-(2-cyclopropoxyphenyl)pyridin-3-yl]cyclopropoxy}methyl)benzenesulfonamido]pentyl}-3-[(2S,3R,4S,5R)-1,3,4,5,6-pentahydroxyhexan-2-yl]urea] and `O=C(NCCOCCS(=O)(=O)c1ccc(Cl)c(COC2(c3cnccc3-c3ccccc3OC3CC3)CC2)c1)N[C@@H](CO)[C@@H](O)[C@H](O)[C@H](O)CO` [Compound I-641, 1-(2-{2-[4-chloro-3-({1-[4-(2-cyclopropoxyphenyl)pyridin-3-yl]cyclopropoxy}methyl)benzenesulfonyl]ethoxy}ethyl)-3-[(2S,3R,4S,5R)-1,3,4,5,6-pentahydroxyhexan-2-yl]urea] cannot be ordered by EC50: less than 100 nM for the first, less than 100 nM for the second.

First: NC(=O)CCN(C[C@H](O)[C@@H](O)[C@H](O)[C@H](O)CO)C(=O)CCCCc1cc(Cl)c(COC2(c3cnccc3-c3ccccc3OC3CC3)CC2)cc1Cl [Compound I-223, N-(2-carbamoylethyl)-5-[2,5-dichloro-4-({1-[4-(2-cyclopropoxyphenyl)pyridin-3-yl]cyclopropoxy}methyl)phenyl]-N-[(2S,3R,4R,5R)-2,3,4,5,6-pentahydroxyhexyl]pentanamide]
Second: CC(C)(CC(=O)O)CC(=O)N(CCCCc1cc(Cl)c(COC2(c3cnccc3-c3ccccc3OC3CC3)CC2)cc1Cl)C[C@H](O)[C@@H](O)[C@H](O)[C@H](O)CO [Compound I-196, 4-({4-[2,5-dichloro-4-({1-[4-(2-cyclopropoxyphenyl)pyridin-3-yl]cyclopropoxy}methyl)phenyl]butyl}[(2S,3R,4R,5R)-2,3,4,5,6-pentahydroxyhexyl]carbamoyl)-3,3-dimethylbutanoic acid]
The EC50 of the first is lower: less than 100 nM for the first, 126 to 1000 nM for the second.

`O=C([C@@H](O)[C@@H](O)[C@H](O)[C@@H](O)CO)N(CCCCc1cc(Cl)c(COC2(c3cnccc3-c3ccccc3OC3CC3)CC2)cc1Cl)CCOCCO` [Compound I-85] and `CC(CCCC(=O)NC[C@H](O)[C@@H](O)[C@H](O)[C@H](O)CO)c1cc(Cl)c(COC2(c3cnccc3-c3ccccc3OC3CC3)CC2)cc1Cl` (stereo partly drawn) [Compound I-161, 5-[2,5-dichloro-4-({1-[4-(2-cyclopropoxyphenyl)pyridin-3-yl]cyclopropoxy}methyl)phenyl]-N-[(2S,3R,4R,5R)-2,3,4,5,6-pentahydroxyhexyl]hexanamide] cannot be ordered by EC50: less than 100 nM for the first, less than 100 nM for the second.

`O=C(CCC1CCN(S(=O)(=O)c2ccc(Cl)c(COC3(c4cnccc4-c4ccccc4OC4CC4)CC3)c2)C1)NC[C@H](O)[C@@H](O)[C@H](O)[C@H](O)CO` (stereo partly drawn) [Compound I-451, 3-{1-[4-chloro-3-({-[4-(2-cyclopropoxyphenyl)pyridin-3-yl]cyclopropoxy}methyl)benzenesulfonyl]pyrrolidin-3-yl}-N-[(2S,3R,4R,5R)-2,3,4,5,6-pentahydroxyhexyl]propanamide] and `O=C(NCCCSc1ccc(Cl)c(COC2(c3cnccc3-c3ccccc3OC3CC3)CC2)c1)NC[C@H](O)[C@@H](O)[C@H](O)[C@H](O)CO` [Compound I-625, 1-(3-{[4-chloro-3-({1-[4-(2-cyclopropoxyphenyl)pyridin-3-yl]cyclopropoxy}methyl)phenyl]sulfanyl}propyl)-3-[(2S,3R,4R,5R)-2,3,4,5,6-pentahydroxyhexyl]urea] cannot be ordered by EC50: less than 100 nM for the first, less than 100 nM for the second.

`C[C@@H](CCCCN)c1ccc(Cl)c(CNC2(c3cnccc3-c3ccccc3OC3CC3)CC2)c1` (single isomer, unassigned) [Compound I-243] and `C[C@H](CCCCN)c1ccc(Cl)c(COC2(c3cnccc3-c3ccccc3OC3CC3)CC2)c1` (single isomer, unassigned) [Compound I-245] fall in the same range of EC50: 126 to 1000 nM for the first, 126 to 1000 nM for the second.

First: COc1ccccc1-c1ccncc1C1(NCc2cc(Cl)ccc2Cl)CC1 [Compound I-4, N-[(2,5-dichlorophenyl)methyl]-1-[4-(2-methoxyphenyl)pyridin-3-yl]cyclopropan-1-amine]
Second: O=S(=O)(Nc1ccccc1)c1ccc(Cl)c(COC2(c3cnccc3-c3ccccc3OC3CC3)CC2)c1 [Compound I-771, 4-chloro-3-((1-(4-(2-cyclopropoxyphenyl)pyridin-3-yl)cyclopropoxy)methyl)-N-phenylbenzenesulfonamide]
The EC50 of the first is higher: 126 to 1000 nM for the first, less than 100 nM for the second.

First: COCCN(C[C@H](O)[C@@H](O)[C@H](O)[C@H](O)CO)C(=O)CCCC(C)c1ccc(C)c(CNC2(c3cnccc3-c3ccccc3OC3CC3)CC2)c1 (stereo partly drawn) [Compound I-357, 5-{3-[({1-[4-(2-cyclopropoxyphenyl)pyridin-3-yl]cyclopropyl}amino)methyl]-4-methylphenyl}-N-(2-methoxyethyl)-N-[(2S,3R,4R,5R)-2,3,4,5,6-pentahydroxyhexyl]hexanamide]
Second: O=C([C@@H](O)[C@@H](O)[C@H](O)[C@@H](O)CO)N(CCCSc1ccc(Cl)c(CNC2(c3cnccc3-c3ccccc3OC3CC3)CC2)c1)CC1CCOCC1 [Compound I-553, (2S,3S,4R,5S)-N-[3-({4-chloro-3-[({1-[4-(2-cyclopropoxyphenyl)pyridin-3-yl]cyclopropyl}amino)methyl]phenyl}sulfanyl)propyl]-2,3,4,5,6-pentahydroxy-N-(oxan-4-ylmethyl)hexanamide]
The EC50 of the first is lower: less than 100 nM for the first, 126 to 1000 nM for the second.

For `Cc1ccc(SCCCN(C(=O)[C@@H](O)[C@@H](O)[C@H](O)[C@@H](O)CO)C2CCOCC2)cc1COC1(c2cnccc2-c2ccccc2OC2CC2)CC1` [Compound I-540, (2S,3S,4R,5S)-N-(3-{[3-({1-[4-(2-cyclopropoxyphenyl)pyridin-3-yl]cyclopropoxy}methyl)-4-methylphenyl]sulfanyl}propyl)-2,3,4,5,6-pentahydroxy-N-(oxan-4-yl)hexanamide], the EC50 was 126 to 1000 nM.
